Measurements from patent US10072005B2, “4-azaindole derivatives” (EISAI R&D MANAGEMENT CO., LTD., priority 2013, dated 2018).

Target: mAChR M1 (Homo sapiens, UniProt P11229)
Test: In vitro cellular calcium flux assay, positive allosteric modulation of mAChR M1
Format: cell-based
Conditions: not given
Experimental: Baby hamster kidney cells stably expressing human or rat mAChR M1 to M5 were utilised for primary and selectivity profiling activities. mAChR M2 and M4 cell lines also stably expressed the chimeric Gαqi5 G-protein.
Human mAChR M1, M3, M5 and rat M1 cells were grown in low glucose Dulbecco's Modified Eagle's Medium (DMEM) medium plus heat inactivated 10% fetal bovine serum (HI FBS) and 500 μg/ml hygromycin B^1. Human mAChR M2 and M4 cells were maintained as above with^2 the addition of 500 μg/ml G418 to the media. Cells were maintained in culture at 37° C./5% CO2 and passaged twice weekly by treatment with 0.05% Trypsin/EDTA detachment solution, centrifugation (200 g, 5 min) and re-suspension in fresh media. Following cell expansion, cells were cryopreserved at −80° C. by treatment with 0.05% Trypsin/EDTA detachment solution, centrifugation (200 g, 5 min) and re-suspension of the pellet in freezing media (90% HI FBS/10% DMSO^3) at 15E6 cells/ml^4.
Prior to assaying, cells were prepared by thawing at 37° C. in a water bath, centrifugation (200 g, 5 min) and re-suspension of the pellet in fresh media. 15000 cells per well were seeded in black, clear bottomed 384-well Greiner Bio-One plates in plating medium (DMEM/10% HI FBS) and incubated overnight at 37 C/5% CO2.
On the day of the assay, media was removed from each well and replaced with 50 μl^5 assay buffer (HBSS with 20 mM HEPES and 2.5 mM Probenecid) containing the calcium indicator, Calcium 4 (Molecular Devices). Cells were then incubated at 37° C./5% CO2 for 30 min and at room temperature.
Compound preparation was carried out by generation of 11-point, 1 in 3 serial dilution concentration response curves in 100% DMSO. Compound was then diluted 1 in 65^6 with assay buffer (HBSS with 20 mM HEPES and 2.5 mM Probenecid) prior to the addition of 10 ul^7 to the cells using a Tetra fluorometric imaging plate reader (Molecular Devices)^8. Compound driven increases in intracellular calcium flux was measured as an increase in fluorescence (494Ex, 516Em)^9.
Positive allosteric modulator pEC50 values and antagonist pIC50 values for each compound were then determined. […] The points of modification and the alternate reagents, concentrations or equipment employed in these examples were: ^1200 μg/ml hygromycin B; ^2G418 not added; ^3CELLBANKER 1; ^410E6; ^5 40 μl; ^6 1 in 99; ^7 20 μl; ^8FDSS6000 (Hamamatsu Photonics); ^9(480Ex, 540Em); ^10Spotfire (TIBCO).

Chain of mAChR M1 (P11229 whole entry, looked up): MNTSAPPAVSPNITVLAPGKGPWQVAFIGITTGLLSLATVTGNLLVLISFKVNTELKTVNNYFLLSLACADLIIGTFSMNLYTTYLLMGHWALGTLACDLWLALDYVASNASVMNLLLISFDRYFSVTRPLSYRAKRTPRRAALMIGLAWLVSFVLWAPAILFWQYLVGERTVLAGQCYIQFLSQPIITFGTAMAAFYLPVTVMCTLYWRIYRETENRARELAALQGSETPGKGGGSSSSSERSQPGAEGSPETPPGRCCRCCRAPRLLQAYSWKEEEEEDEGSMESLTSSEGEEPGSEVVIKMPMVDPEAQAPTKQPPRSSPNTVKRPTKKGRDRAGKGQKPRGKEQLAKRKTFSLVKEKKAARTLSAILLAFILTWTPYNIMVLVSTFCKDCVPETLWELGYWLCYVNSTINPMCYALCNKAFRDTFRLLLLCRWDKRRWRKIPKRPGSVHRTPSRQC

Q: N#Cc1ccc(Cn2cc(C(=O)N[C@H]3CCCC[C@@H]3O)c3nccc(Cl)c32)cn1 [Example 70, 7-Chloro-1-((6-cyanopyridin-3-yl)methyl)-N-((1S,2S)-2-hydroxycyclohexyl)-1H-pyrrolo[3,2-b]pyridine-3-carboxamide] was tested. Which EC50 did it give?
A: 100 nM

Same assay, conditions: BHK cells expressing mAChR M1; EC20 carbachol; Examples 76-80 and 82-89 slightly modified procedure

Q: With Cc1ccc2c(n1)c(C(=O)N[C@H]1CCCC[C@@H]1O)cn2Cc1ccc(-n2cccn2)cc1 [Example 40, 1-(4-(1H-Pyrazol-1-yl)benzyl)-N-((1S,2S)-2-hydroxycyclohexyl)-5-methyl-1H-pyrrolo[3,2-b]pyridine-3-carboxamide] as the compound, how does the “pEC50 for positive allosteric modulation” value read?
A: 6.5

Q: Cn1ccnc1-c1ccc(Cn2cc(C(=O)N[C@H]3CCCC[C@@H]3O)c3ncccc32)cc1 [Example 42, N-((1S,2S)-2-Hydroxycyclohexyl)-1-(4-(1-methyl-1H-imidazol-2-yl)benzyl)-1H-pyrrolo[3,2-b]pyridine-3-carboxamide] was tested. Which “pEC50 for positive allosteric modulation” value did it give?
A: 7.0

Q: How did the “pEC50 for positive allosteric modulation” value turn out when Cc1cccc(-c2ccc(Cn3cc(C(=O)N[C@H]4CCCC[C@@H]4O)c4ncccc43)c(F)c2)n1 [Example 44, 1-(2-Fluoro-4-(6-methylpyridin-2-yl)benzyl)-N-((1S,2S)-2-hydroxycyclohexyl)-1H-pyrrolo[3,2-b]pyridine-3-carboxamide] was run?
A: 6.9

Q: How did the “pEC50 for positive allosteric modulation” value turn out when Cc1cc(-c2ccc(Cn3cc(C(=O)N[C@H]4CCCC[C@@H]4O)c4ncccc43)c(F)c2)ccn1 [Example 45, 1-(2-Fluoro-4-(2-methylpyridin-4-yl)benzyl)-N-((1S,2S)-2-hydroxycyclohexyl)-1H-pyrrolo[3,2-b]pyridine-3-carboxamide] was run?
A: 7.5

Q: For O=C(NC1CCCCC1)c1cn(Cc2ccc(-n3cccn3)cc2)c2cccnc12 [Example 50, 1-(4-(1H-Pyrazol-1-yl)benzyl)-N-cyclohexyl-1H-pyrrolo[3,2-b]pyridine-3-carboxamide], which “pEC50 for positive allosteric modulation” value is on record?
A: 6.4

Q: With O=C(NC1CCC(F)(F)CC1)c1cn(Cc2ccc(-n3cccn3)cc2)c2cccnc12 [Example 51, 1-(4-(1H-Pyrazol-1-yl)benzyl)-N-(4,4-difluorocyclohexyl)-1H-pyrrolo[3,2-b]pyridine-3-carboxamide] as the compound, how does the “pEC50 for positive allosteric modulation” value read?
A: 6.3

Q: Which “pEC50 for positive allosteric modulation” value does the source give for O=C(N[C@H]1CCCNC1)c1cn(Cc2ccc(-n3cccn3)cc2)c2cccnc12 [Example 52, (S)-1-(4-(1H-Pyrazol-1-yl)benzyl)-N-(piperidin-3-yl)-1H-pyrrolo[3,2-b]pyridine-3-carboxamide] here?
A: 6.7

Q: For O=C(N[C@@H]1CCCNC1)c1cn(Cc2ccc(-n3cccn3)cc2)c2cccnc12 [Example 53, (R)-1-(4-(1H-Pyrazol-1-yl)benzyl)-N-(piperidin-3-yl)-1H-pyrrolo[3,2-b]pyridine-3-carboxamide], which “pEC50 for positive allosteric modulation” value is on record?
A: 6.2

Q: For CN1CCC[C@H](NC(=O)c2cn(Cc3ccc(-n4cccn4)cc3)c3cccnc23)C1 [Example 54, (S)-1-(4-(1H-Pyrazol-1-yl)benzyl)-N-(1-methylpiperidin-3-yl)-1H-pyrrolo[3,2-b]pyridine-3-carboxamide], which “pEC50 for positive allosteric modulation” value is on record?
A: 7.5

Q: How did the “pEC50 for positive allosteric modulation” value turn out when CN1CCC[C@@H](NC(=O)c2cn(Cc3ccc(-n4cccn4)cc3)c3cccnc23)C1 [Example 55, (R)-1-(4-(1H-Pyrazol-1-yl)benzyl)-N-(1-methylpiperidin-3-yl)-1H-pyrrolo[3,2-b]pyridine-3-carboxamide] was run?
A: 6.7

Q: How did the “pEC50 for positive allosteric modulation” value turn out when O=C(N[C@H]1CCCC[C@@H]1O)c1cn(Cc2ccc(Br)cc2)c2cccnc12 [Example 56, 1-(4-Bromobenzyl)-N-((1S,2S)-2-hydroxycyclohexyl)-1H-pyrrolo[3,2-b]pyridine-3-carboxamide] was run?
A: 6.5

Q: Cn1cc(-c2ccc(Cn3cc(C(=O)N[C@H]4CCCC[C@@H]4O)c4ncccc43)cc2)cn1 [Example 57, N-((1S,2S)-2-Hydroxycyclohexyl)-1-(4-(1-methyl-1H-pyrazol-4-yl)benzyl)-1H-pyrrolo[3,2-b]pyridine-3-carboxamide] was tested. Which “pEC50 for positive allosteric modulation” value did it give?
A: 7.6

Q: Which “pEC50 for positive allosteric modulation” value does the source give for COc1ccc(Cn2cc(C(=O)N[C@H]3CCCC[C@@H]3O)c3nccc(Cl)c32)cc1 [Example 58, 7-Chloro-N-((1S,2S)-2-hydroxycyclohexyl)-1-(4-methoxybenzyl)-1H-pyrrolo[3,2-b]pyridine-3-carboxamide] here?
A: 7.7

Q: Cc1ccnc2c(C(=O)N[C@H]3CCCC[C@@H]3O)cn(Cc3ccc(Cl)nc3)c12 [Example 59, 1-((6-Chloropyridin-3-yl)methyl)-N-((1S,2S)-2-hydroxycyclohexyl)-7-methyl-1H-pyrrolo[3,2-b]pyridine-3-carboxamide] was tested. Which “pEC50 for positive allosteric modulation” value did it give?
A: 7.4

Q: For Cc1ccnc2c(C(=O)N[C@H]3CCCC[C@@H]3O)cn(Cc3ccc(Cl)cc3)c12 [Example 60, 1-(4-Chlorobenzyl)-N-((1S,2S)-2-hydroxycyclohexyl)-7-methyl-1H-pyrrolo[3,2-b]pyridine-3-carboxamide], which “pEC50 for positive allosteric modulation” value is on record?
A: 7.8

Q: How did the “pEC50 for positive allosteric modulation” value turn out when Cc1ccc(Cn2cc(C(=O)N[C@H]3CCCC[C@@H]3O)c3nccc(Cl)c32)nc1 [Example 61, 7-Chloro-N-((1S,2S)-2-hydroxycyclohexyl)-1-((5-methylpyridin-2-yl)methyl)-1H-pyrrolo[3,2-b]pyridine-3-carboxamide] was run?
A: 7.0

Q: Cc1ccc(Cn2cc(C(=O)N[C@H]3CCCC[C@@H]3O)c3nccc(Cl)c32)cn1 [Example 62, 7-Chloro-N-((1S,2S)-2-hydroxycyclohexyl)-1-((6-methylpyridin-3-yl)methyl)-1H-pyrrolo[3,2-b]pyridine-3-carboxamide] was tested. Which “pEC50 for positive allosteric modulation” value did it give?
A: 7.4

Q: Which “pEC50 for positive allosteric modulation” value does the source give for Cc1ccc(Cn2cc(C(=O)N[C@H]3CCCC[C@@H]3O)c3nccc(C)c32)cc1 [Example 63, N-((1S,2S)-2-Hydroxycyclohexyl)-7-methyl-1-(4-methylbenzyl)-1H-pyrrolo[3,2-b]pyridine-3-carboxamide] here?
A: 7.6

Q: For Cc1ccc(Cn2cc(C(=O)N[C@H]3CCCC[C@@H]3O)c3nccc(C)c32)nc1 [Example 64, N-((1S,2S)-2-Hydroxycyclohexyl)-7-methyl-1-((5-methylpyridin-2-yl)methyl)-1H-pyrrolo[3,2-b]pyridine-3-carboxamide], which “pEC50 for positive allosteric modulation” value is on record?
A: 7.2

Q: Cc1ccnc2c(C(=O)N[C@H]3CCCC[C@@H]3O)cn(Cc3cccc(F)c3)c12 [Example 65, 1-(3-Fluorobenzyl)-N-((1S,2S)-2-hydroxycyclohexyl)-7-methyl-1H-pyrrolo[3,2-b]pyridine-3-carboxamide] was tested. Which “pEC50 for positive allosteric modulation” value did it give?
A: 7.7

Q: Which “pEC50 for positive allosteric modulation” value does the source give for COc1ccc(Cn2cc(C(=O)N[C@H]3CCCC[C@@H]3O)c3nccc(C)c32)cc1C [Example 66, N-((1S,2S)-2-Hydroxycyclohexyl)-1-(4-methoxy-3-methylbenzyl)-7-methyl-1H-pyrrolo[3,2-b]pyridine-3-carboxamide] here?
A: 7.9

Q: How did the “pEC50 for positive allosteric modulation” value turn out when COc1ccc(Cn2cc(C(=O)N[C@H]3CCCC[C@@H]3O)c3nccc(C)c32)cn1 [Example 67, N-((1S,2S)-2-Hydroxycyclohexyl)-1-((6-methoxypyridin-3-yl)methyl)-7-methyl-1H-pyrrolo[3,2-b]pyridine-3-carboxamide] was run?
A: 7.5

Q: How did the “pEC50 for positive allosteric modulation” value turn out when COc1ccc(Cn2cc(C(=O)N[C@H]3CCCC[C@@H]3O)c3nccc(Cl)c32)cn1 [Example 68, 7-Chloro-N-((1S,2S)-2-hydroxycyclohexyl)-1-((6-methoxypyridin-3-yl)methyl)-1H-pyrrolo[3,2-b]pyridine-3-carboxamide] was run?
A: 7.7

Q: With COc1cc(Cn2cc(C(=O)N[C@H]3CCCC[C@@H]3O)c3nccc(Cl)c32)ccn1 [Example 69, 7-Chloro-N-((1S,2S)-2-hydroxycyclohexyl)-1-((2-methoxypyridin-4-yl)methyl)-1H-pyrrolo[3,2-b]pyridine-3-carboxamide] as the compound, how does the “pEC50 for positive allosteric modulation” value read?
A: 8.0

Same assay, conditions: BHK cells expressing mAChR M1; EC20 carbachol; Examples 76-80 and 82-89 slightly modified procedure; read-out: pEC50 for positive allosteric modulation (converted)

Q: For N#Cc1ccc2c(n1)c(C(=O)N[C@H]1CCCC[C@@H]1O)cn2Cc1ccc(-n2cccn2)cc1 [Example 41, 1-(4-(1H-Pyrazol-1-yl)benzyl)-5-cyano-N-((1S,2S)-2-hydroxycyclohexyl)-1H-pyrrolo[3,2-b]pyridine-3-carboxamide], which EC50 is on record?
A: 316 nM
